This passage reports TGI and GI50 results from PubChem BioAssay (NCI).

The structures appear in SMILES notation.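 Five compound concentrations were applied to cells in 96-well plates for 48 hours; endpoints were derived by simple linear interpolation of the resulting dose-response curve. GI50 is the concentration that inhibits growth by half. Definition used: TGI = concentration required for complete inhibition of growth.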 A value given as a limit tells only on which side of the number the result lay.

Broadly, the TGI is the concentration at which net growth stops. High values mean less potent growth arrest, low ones more potent growth arrest. What is called GI50 is the concentration that inhibits growth by half.

Some test systems named below: ACHN renal; HS 578T breast; MDA-MB-231 breast; OVCAR-5 ovarian; OVCAR-8 ovarian; RPMI-8226 leukemia; SK-MEL-2 melanoma; SK-MEL-5 melanoma; UACC-257 melanoma; UO-31 renal.
Test in all cases: DTP human tumour cell line panel, 48 h

As to `C[C@]12CC[C@@H]3c4ccc(OP(=O)(O)O)cc4CC[C@H]3[C@@H]1CCC2=O`, the TGI in the test with ACHN renal, in the test on HS 578T breast, in the test with MDA-MB-231 breast, with OVCAR-5 ovarian, with OVCAR-8 ovarian and with RPMI-8226 leukemia was above 100 µM in each case. Moreover, the TGI in the test with SK-MEL-2 melanoma was above 100 µM; with SK-MEL-5 melanoma, 69.2 µM; in the test with UACC-257 melanoma it was above 100 µM; in the test with UO-31 renal, above 100 µM.
Take `CC[C@H]1C=CCC[C@@]2(C[C@@H]3CC[C@@H]4[C@H](C(=O)OCCCCCCCCCCCCCCCC(=O)O)[C@]5(CCC[C@@H](C)O5)NC(=[N+]34)N2)O1`: the TGI in the test on ACHN renal was 1.89 µM; in the test on HS 578T breast, 2.13 µM; with MDA-MB-231 breast, 9.09 µM; with OVCAR-5 ovarian it was 8.73 µM; in the test on OVCAR-8 ovarian it was 8.03 µM; in the test on RPMI-8226 leukemia, 0.582 µM. Also, the TGI is 0.347 µM in the test with SK-MEL-2 melanoma, 0.251 µM with SK-MEL-5 melanoma and 0.339 µM with UO-31 renal.
On to `CC1SC(c2ccccc2)N(CCc2cccs2)C1=O` (stereo unspecified), for which the GI50 in the test with ACHN renal was 4.69 µM; in the test on HS 578T breast it was 4.52 µM; in the test on MDA-MB-231 breast, 3.3 µM; in the test with OVCAR-5 ovarian, 10.3 µM; in the test with OVCAR-8 ovarian it was 4.72 µM; in the test on RPMI-8226 leukemia, 2.44 µM. In addition, the GI50 in the test with SK-MEL-2 melanoma was 3.42 µM; in the test on SK-MEL-5 melanoma it was 1.67 µM; in the test with UACC-257 melanoma, 4.73 µM. The TGI in the test with ACHN renal was 17.9 µM; with HS 578T breast, 38.1 µM; in the test with MDA-MB-231 breast, 16.1 µM; in the test on OVCAR-5 ovarian, 27 µM; in the test on OVCAR-8 ovarian it was 31.2 µM; in the test with RPMI-8226 leukemia it was 8.07 µM. In addition, the TGI with SK-MEL-2 melanoma came to 14.7 µM; with SK-MEL-5 melanoma, 3.15 µM; with UACC-257 melanoma, 14.5 µM.
Turning to `COC(=O)C1=CC2CCCC1(O)C(C(C)=O)C2` (stereo unspecified), the TGI was above 100 µM with ACHN renal; above 100 µM with HS 578T breast; above 100 µM in the test on MDA-MB-231 breast; above 100 µM in the test on OVCAR-5 ovarian; above 79.5 µM in the test with OVCAR-8 ovarian; 69.6 µM with RPMI-8226 leukemia. The TGI in the test with SK-MEL-2 melanoma is above 100 µM; in the test on SK-MEL-5 melanoma, above 100 µM; in the test on UACC-257 melanoma it was above 100 µM; in the test on UO-31 renal it was 38.6 µM.
On to `COc1ccc2nc(-n3c(/C=C/c4ccccc4O)nc4ccccc4c3=O)sc2c1`, for which the TGI was above 100 µM with ACHN renal; above 100 µM with HS 578T breast; above 100 µM in the test with MDA-MB-231 breast; above 100 µM in the test with OVCAR-5 ovarian; above 100 µM with OVCAR-8 ovarian; 80.8 µM with RPMI-8226 leukemia. The TGI with SK-MEL-2 melanoma is above 100 µM; in the test on SK-MEL-5 melanoma it was 66.2 µM; with UACC-257 melanoma it was above 100 µM; with UO-31 renal, above 100 µM.
As to `CCSCCC(N)C(=O)O` (stereo unspecified), the TGI in the test with ACHN renal, in the test with HS 578T breast, in the test on MDA-MB-231 breast, with OVCAR-5 ovarian, with OVCAR-8 ovarian and in the test on RPMI-8226 leukemia was above 100 µM in each case. The TGI with SK-MEL-2 melanoma, with SK-MEL-5 melanoma, in the test with UACC-257 melanoma and with UO-31 renal was above 100 µM each time.
As to `COc1ccc(/C=C2\C(=O)N(C3OC(COC(C)=O)C(OC(C)=O)C(OC(C)=O)C3OC(C)=O)c3ccccc3N=C2N)cc1` (stereo unspecified), the TGI is above 100 µM in the test on ACHN renal; above 100 µM with HS 578T breast; above 100 µM in the test on MDA-MB-231 breast; above 100 µM in the test with OVCAR-5 ovarian; 45.6 µM with OVCAR-8 ovarian; 37.5 µM in the test with RPMI-8226 leukemia. Moreover, the TGI in the test with SK-MEL-2 melanoma was 66.9 µM; in the test with SK-MEL-5 melanoma, 23.4 µM; in the test on UACC-257 melanoma, 72.5 µM; in the test with UO-31 renal, above 100 µM.
Take `CCC1C(C#N)=C(N)OC2=C1C(=O)CC(C)(C)C2` (stereo unspecified): the concentration for total growth inhibition (TGI) in the test with ACHN renal, in the test on HS 578T breast, in the test on MDA-MB-231 breast, in the test with OVCAR-5 ovarian, in the test on OVCAR-8 ovarian and in the test on RPMI-8226 leukemia was above 100 µM throughout. For the same compound, the TGI in the test on SK-MEL-2 melanoma, in the test with SK-MEL-5 melanoma and in the test with UACC-257 melanoma was above 100 µM in each case.
On to `COc1ccc2nc(N/N=C/C(C)=N/Nc3cc(C)c4cc(OC)ccc4n3)cc(C)c2c1`, for which the TGI in the test with ACHN renal amounted to 55.3 µM; in the test with HS 578T breast, 68.8 µM; with MDA-MB-231 breast it was 36.7 µM; in the test with OVCAR-5 ovarian it was 49.5 µM; in the test with OVCAR-8 ovarian it was 39.5 µM; with RPMI-8226 leukemia, 19.2 µM. Further, the TGI is above 82.1 µM in the test on SK-MEL-2 melanoma, 72.8 µM with SK-MEL-5 melanoma, above 86.6 µM in the test with UACC-257 melanoma and above 100 µM in the test on UO-31 renal.
As to `CCOC(=O)N(Cc1cccs1)c1cc(OC)c(OC)c(OC)c1`, the TGI was above 100 µM in the test on ACHN renal; above 100 µM in the test on HS 578T breast; above 100 µM in the test with MDA-MB-231 breast; above 100 µM in the test with OVCAR-5 ovarian; above 100 µM in the test on OVCAR-8 ovarian; 51.9 µM in the test on RPMI-8226 leukemia. Besides, the TGI in the test with SK-MEL-2 melanoma, in the test with SK-MEL-5 melanoma, in the test with UACC-257 melanoma and with UO-31 renal was above 100 µM each time.
Regarding `Cn1c(=S)[nH]c2sc3c(c2c1=O)CCSC3`, the TGI with ACHN renal, with HS 578T breast, in the test with MDA-MB-231 breast, in the test with OVCAR-5 ovarian, in the test with OVCAR-8 ovarian and with RPMI-8226 leukemia was above 100 µM each time. Moreover, the TGI in the test on SK-MEL-2 melanoma was above 100 µM; in the test with SK-MEL-5 melanoma, above 100 µM; in the test with UACC-257 melanoma, above 100 µM; with UO-31 renal, 25.8 µM.
